Measured values from patent US8754226B2, “Piperidinyl-substituted lactams as GPR119 modulators” (Array BioPharma Inc., priority 2010, dated 2014).

System: modified version of the GPR119 receptor (94% identity to human receptor)
Assay: cAMP production assay (LANCE cAMP kit, TR-FRET) in HEK-293 cells
Format: cell-based
Conditions: for cAMP production in HEK-293 cells: HEK-293 cells stably expressing modified GPR119, test compounds 0.2 nM to 10 μM, one-hour incubation at ambient temperature; for Fold over baseline: increase in cAMP relative to basal levels, agonist activity if 1.5-fold or greater
Outline: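 Doxycycline-induced (1 μg/mL, overnight) HEK-293 cells expressing modified GPR119 were thawed, 2000 cells/well, and exposed to compounds (0.2 nM-10 μM final, 0.5% DMSO) for 1 h at ambient temperature in HBSS/HEPES/BSA. cAMP was measured by LANCE TR-FRET against a standard curve. Agonism was defined as ≥1.5-fold over basal.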

| SMILES | cAMP production in HEK-293 cells [nmol] | Fold over baseline |
| --- | --- | --- |
| CS(=O)(=O)c1ccc(N[C@H]2CCN(C3CCN(c4ncc(Cl)cc4Cl)CC3)C2=O)c(F)c1 [Example 109, (S)-1-(1-(3,5-dichloropyridin-2-yl)piperidin-4-yl)-3-(2-fluoro-4-(methylsulfonyl)phenyl-amino)pyrrolidin-2-one] | 15.8 | 2.9 |
| CS(=O)(=O)c1cc(F)c(N[C@H]2CCN(C3CCN(c4cnc(Cl)cn4)CC3)C2=O)c(F)c1 [Example 20, (S)-1-(1-(5-chloropyrazin-2-yl)piperidin-4-yl)-3-(2,6-difluoro-4-(methylsulfonyl)phenylamino) pyrrolidin-2-one] | 24.4 | 6.5 |
| CS(=O)(=O)c1cc(F)c(N[C@H]2CCN(C3CCN(c4cnc(C(F)(F)F)cn4)CC3)C2=O)cc1F [Example 11, (S)-3-(2,5-difluoro-4-(methylsulfonyl)phenylamino)-1-(1-(5-(trifluoromethyl)pyrazin-2-yl)piperidin-4-yl)pyrrolidin-2-one] | 27.1 | 3.4 |
| CS(=O)(=O)c1cc(F)c(N[C@H]2CCCCN(C3CCN(c4cnccn4)CC3)C2=O)cc1F.Cl [Example 83, (S)-3-(2,5-difluoro-4-(methylsulfonyl)phenylamino)-1-(1-(pyrazin-2-yl)piperidin-4-yl)azepan-2-one hydrochloride] | 13.0 | 2.9 |
| CS(=O)(=O)c1ccc(N[C@H]2CCCN(C3CCN(c4ncc(C(F)(F)F)cn4)CC3)C2=O)c(F)c1 [Example 41, (S)-3-(2-fluoro-4-(methyl-sulfonyl)phenylamino)-1′-(5-(trifluoromethyl)pyrimidin-2-yl)-1,4′-bipiperidin-2-one] | 7.4 | 1.7 |
| CS(=O)(=O)c1ccc(N[C@H]2CCN(C3CCN(c4ccc(C#N)cn4)CC3)C2=O)c(F)c1 [Example 112, (S)-6-(4-(3-(2-fluoro-4-(methylsulfonyl)phenyl-amino)-2-oxopyrrolidin-1-yl)piperidin-1-yl)nicotinonitrile] | 22.5 | 1.7 |
